The results in this text go back to PubChem BioAssay (NCI).

Where “and” joins values, the source holds several entries; their conditions need not be identical. Equal values may be shown once.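 96-well plates; 48 h exposure; 5 concentrations. Endpoints by linear interpolation between flanking doses. Not reached: highest tested concentration assigned. The concentration for 50% growth inhibition is given as GI50. TGI marks complete inhibition of growth.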 Where only a bound is given, the exact number is not on record here.

Test systems include NCI-H226 lung; UACC-257 melanoma; PC-3 prostate; BT-549 breast; OVCAR-5 ovarian; MDA-MB-435; SK-MEL-5 melanoma.
Holding throughout (assay): NCI anticancer screen, dose series, 48 h

On to `CCC(=O)Nc1ccc(N=NN(C)C)cc1`, for which the TGI in the assay with NCI-H226 lung, in the assay on UACC-257 melanoma, with PC-3 prostate, with BT-549 breast, in the assay on OVCAR-5 ovarian and in the assay on MDA-MB-435 was over 100 µM each time. In addition, the TGI with SK-MEL-5 melanoma is over 100 µM.
As for `COC(=O)CCC1=C(CC(=O)OC)C(C)=N/C1=C\c1[nH]c(-c2ccc[nH]2)cc1OC`, the GI50 is 3.29 µM with NCI-H226 lung; 4.47 µM in the assay with UACC-257 melanoma; 5.32 µM with PC-3 prostate; 6.49 µM in the assay on BT-549 breast; 3.9 µM in the assay on OVCAR-5 ovarian; 5.81 µM with MDA-MB-435. Besides, in the assay with SK-MEL-5 melanoma, the GI50 is 1.44 µM. Besides, the TGI was determined as 19.6 µM in the assay with NCI-H226 lung; 17 µM in the assay on UACC-257 melanoma; 22.6 µM in the assay on PC-3 prostate; 21.6 µM in the assay on BT-549 breast; 18.8 µM in the assay on OVCAR-5 ovarian; 23.3 µM in the assay on MDA-MB-435. The TGI with SK-MEL-5 melanoma worked out at 3.23 µM.
Turning to `Cc1ccc(Nc2nnc(-c3ccc4c(c3)OCO4)o2)c(C)c1`, the TGI with NCI-H226 lung, with UACC-257 melanoma, in the assay with PC-3 prostate, with BT-549 breast, in the assay with OVCAR-5 ovarian and in the assay on MDA-MB-435 was over 100 µM throughout. In the assay with SK-MEL-5 melanoma, this compound displayed a TGI of over 100 µM.
`CC/C=C/C/C=C/C/C=C/C/C=C/C/C=C/C/C=C/CCC(=O)Nc1ccn([C@@H]2O[C@H](CO)[C@@H](O)C2(F)F)c(=O)n1`: the GI50 with NCI-H226 lung was 0.228 µM; in the assay with UACC-257 melanoma, 5.05 µM; with PC-3 prostate it was 6.65 µM; with BT-549 breast, 0.681 µM; in the assay with OVCAR-5 ovarian it was 2.83 µM; in the assay with MDA-MB-435, 0.2 µM. The GI50 with SK-MEL-5 melanoma was 0.348 µM. Further, the TGI in the assay on NCI-H226 lung was 12.1 µM; with UACC-257 melanoma, 46.4 µM; in the assay on PC-3 prostate, 52.3 µM; in the assay with BT-549 breast, 19.8 µM; with OVCAR-5 ovarian, over 60.8 µM; in the assay on MDA-MB-435, 17.5 µM. Moreover, the TGI in the assay with SK-MEL-5 melanoma is 17.8 µM.
As to `O=C(N/N=C/c1c(Cl)cccc1Cl)c1ccc(C(F)(F)F)nc1Nc1cccc(C(F)(F)F)c1`, the GI50 was 1.53 µM with NCI-H226 lung; 1.02 µM in the assay with UACC-257 melanoma; 0.767 µM in the assay on PC-3 prostate; 2.6 µM in the assay with BT-549 breast; 4.06 µM in the assay with OVCAR-5 ovarian; 2.37 µM with MDA-MB-435. Further, the GI50 in the assay on SK-MEL-5 melanoma was 0.829 µM. In addition, the TGI is 6.74 µM in the assay on NCI-H226 lung; over 100 µM in the assay with UACC-257 melanoma; over 21.1 µM in the assay on PC-3 prostate; 9 µM in the assay on BT-549 breast; over 30.2 µM with OVCAR-5 ovarian; over 100 µM in the assay with MDA-MB-435. Further, in the assay on SK-MEL-5 melanoma, the TGI is 2.84 µM.
With `COc1ccc(/C=C(/c2ccccc2)[N+](=O)[O-])cc1`, the GI50 in the assay on NCI-H226 lung was 1.95 µM; in the assay with UACC-257 melanoma, 1.6 µM; in the assay on PC-3 prostate, 1.46 µM; with BT-549 breast, 1.42 µM; in the assay with OVCAR-5 ovarian, 1.62 µM; with MDA-MB-435, 1.3 µM. Also, in the assay with SK-MEL-5 melanoma, the GI50 is 1.82 µM. The TGI in the assay on NCI-H226 lung stood at 4.43 µM; with UACC-257 melanoma, 3.4 µM; in the assay on PC-3 prostate, 3.21 µM; in the assay on BT-549 breast, 2.88 µM; in the assay with OVCAR-5 ovarian, 3.26 µM; in the assay on MDA-MB-435 it was 2.69 µM. This compound returned a TGI in the assay on SK-MEL-5 melanoma of 3.29 µM.
Regarding `O=C(O)C12CC3(C(=O)O)CC(C(=O)O)(CC(C(=O)O)(C1)C3=O)C2=O`, the TGI in the assay with NCI-H226 lung, with UACC-257 melanoma, in the assay with PC-3 prostate, with BT-549 breast, in the assay with OVCAR-5 ovarian and in the assay on MDA-MB-435 was over 100 µM each time. Moreover, in the assay on SK-MEL-5 melanoma, the TGI is over 100 µM.
On to `C[C@]12CC[C@@H]3c4ccc(O)c([N+](=O)[O-])c4CC[C@H]3[C@@H]1CC[C@@H]2NS(=O)(=O)c1cccc(Br)c1`, for which the GI50 is 2.9 µM with NCI-H226 lung; 2.1 µM in the assay with UACC-257 melanoma; 2.56 µM with PC-3 prostate; 1.91 µM in the assay on BT-549 breast; 2.16 µM in the assay with OVCAR-5 ovarian; 1.53 µM in the assay on MDA-MB-435. The GI50 in the assay on SK-MEL-5 melanoma was 1.67 µM. Also, the TGI in the assay on NCI-H226 lung turned out to be 8.53 µM; with UACC-257 melanoma, 5.04 µM; in the assay with PC-3 prostate it was 11.1 µM; in the assay with BT-549 breast, 3.93 µM; with OVCAR-5 ovarian, 5.17 µM; in the assay on MDA-MB-435, 2.98 µM. The compound further came in with a TGI in the assay with SK-MEL-5 melanoma of 3.11 µM.
For `CC1C(=O)OC2CC[N+]3([O-])CC=C(COC(=O)C(C)(O)C1(C)O)C23` (stereo unspecified), the TGI in the assay with NCI-H226 lung, in the assay on UACC-257 melanoma, with PC-3 prostate, with BT-549 breast, with OVCAR-5 ovarian and in the assay on MDA-MB-435 was over 100 µM in each case. Also, the TGI with SK-MEL-5 melanoma was over 100 µM.
Take `COCOc1ccc(C2(O)Oc3cc(OCOC)ccc3C2C)c(O)c1` (stereo unspecified): the TGI in the assay with NCI-H226 lung was found to be 31.2 µM; with UACC-257 melanoma it was 24.5 µM; in the assay with PC-3 prostate, 26.3 µM; with BT-549 breast, 28.2 µM; in the assay with OVCAR-5 ovarian, 31.3 µM; in the assay with MDA-MB-435 it was 28.1 µM. In the assay with SK-MEL-5 melanoma, this compound had a TGI of 23 µM.
As to `O=c1[nH]c(=O)n([C@H]2CCCO2)cc1F`, the GI50 with NCI-H226 lung is 3650 µM; with UACC-257 melanoma it was 3540 µM; in the assay with OVCAR-5 ovarian it was 2660 µM; in the assay on MDA-MB-435, 1350 µM; in the assay on SK-MEL-5 melanoma, 429 µM. For the same compound, the TGI in the assay with NCI-H226 lung was 720 µM and > 5000 µM; with UACC-257 melanoma it was over 5000 µM; in the assay on PC-3 prostate, over 5000 µM; in the assay on BT-549 breast, over 5000 µM; with OVCAR-5 ovarian, over 5000 µM; in the assay on MDA-MB-435, over 5000 µM. In the assay on SK-MEL-5 melanoma, this compound returned a TGI of over 2600 µM.
On to `COc1ccc2c(Oc3ccc(NC(=O)c4c(C)n(CC(C)(C)O)n(-c5ccccc5)c4=O)nc3)ccnc2c1`, for which the GI50 in the assay on NCI-H226 lung is 16.2 µM; in the assay with UACC-257 melanoma, 16.6 µM; with PC-3 prostate, 19.5 µM; with BT-549 breast it was 22.7 µM; in the assay with OVCAR-5 ovarian, 37.8 µM; in the assay on MDA-MB-435 it was 6.57 µM. For the same compound, the GI50 in the assay with SK-MEL-5 melanoma was 11.5 µM. The TGI was over 78 µM in the assay with NCI-H226 lung; over 100 µM in the assay with UACC-257 melanoma; over 95.6 µM in the assay with PC-3 prostate; over 66 µM in the assay with BT-549 breast; over 89.6 µM in the assay with OVCAR-5 ovarian; over 66.5 µM in the assay on MDA-MB-435. Moreover, the TGI in the assay on SK-MEL-5 melanoma was over 68.1 µM.
